Experimental data reported in BindingDB's records for patent US20240335442 (Eurofarma, 2024).

How the values were obtained:
[1] = biological target: Sodium channel protein type 10 subunit alpha (Homo sapiens, UniProt Q9Y5Y9); assay: In Vitro Assay (Protocol 2)
Method: (§1) Compounds of Formula (I), were diluted in eight concentrations in the extracellular solution composed of physiological saline, buffered with HEPES (mM): NaCl, 137; KCl, 4; CaCl2, 3.8; MgCl2, 1; HEPES, 10; Glucose, 10; pH 7.4. […], 50; CsF, 90; MgCl2, 5; EGTA, 5; HEPES, 10; pH 7.2. The duration of exposure of each compound with the cells expressing Nav 1.7 or Nav 1.8 was at least five minutes and the assays were performed at room temperature.The measurements of the sodium currents of Nav 1.8 and Nav 1.7 were obtained using the voltage protocols described below: A holding voltage of-100 mV was established followed by an inactivation voltage step at −40 mV for 8 seconds, followed by a −100 mV step for 20 ms, followed by a 20 ms step for 10 mV for Nav 1.8 or 0 mV for Nav 1.7 (TP1A) before returning to the holding voltage of-100 mV. Protocols were repeated at a frequency of 0.05 Hz and current amplitude was quantified over the TP1A phase log.

[2] = biological target: Sodium channel protein type 9 subunit alpha (Homo sapiens, UniProt Q15858); assay: In Vitro Assay (Protocol 2)
Chain of Sodium channel protein type 9 subunit alpha (Q15858 whole entry): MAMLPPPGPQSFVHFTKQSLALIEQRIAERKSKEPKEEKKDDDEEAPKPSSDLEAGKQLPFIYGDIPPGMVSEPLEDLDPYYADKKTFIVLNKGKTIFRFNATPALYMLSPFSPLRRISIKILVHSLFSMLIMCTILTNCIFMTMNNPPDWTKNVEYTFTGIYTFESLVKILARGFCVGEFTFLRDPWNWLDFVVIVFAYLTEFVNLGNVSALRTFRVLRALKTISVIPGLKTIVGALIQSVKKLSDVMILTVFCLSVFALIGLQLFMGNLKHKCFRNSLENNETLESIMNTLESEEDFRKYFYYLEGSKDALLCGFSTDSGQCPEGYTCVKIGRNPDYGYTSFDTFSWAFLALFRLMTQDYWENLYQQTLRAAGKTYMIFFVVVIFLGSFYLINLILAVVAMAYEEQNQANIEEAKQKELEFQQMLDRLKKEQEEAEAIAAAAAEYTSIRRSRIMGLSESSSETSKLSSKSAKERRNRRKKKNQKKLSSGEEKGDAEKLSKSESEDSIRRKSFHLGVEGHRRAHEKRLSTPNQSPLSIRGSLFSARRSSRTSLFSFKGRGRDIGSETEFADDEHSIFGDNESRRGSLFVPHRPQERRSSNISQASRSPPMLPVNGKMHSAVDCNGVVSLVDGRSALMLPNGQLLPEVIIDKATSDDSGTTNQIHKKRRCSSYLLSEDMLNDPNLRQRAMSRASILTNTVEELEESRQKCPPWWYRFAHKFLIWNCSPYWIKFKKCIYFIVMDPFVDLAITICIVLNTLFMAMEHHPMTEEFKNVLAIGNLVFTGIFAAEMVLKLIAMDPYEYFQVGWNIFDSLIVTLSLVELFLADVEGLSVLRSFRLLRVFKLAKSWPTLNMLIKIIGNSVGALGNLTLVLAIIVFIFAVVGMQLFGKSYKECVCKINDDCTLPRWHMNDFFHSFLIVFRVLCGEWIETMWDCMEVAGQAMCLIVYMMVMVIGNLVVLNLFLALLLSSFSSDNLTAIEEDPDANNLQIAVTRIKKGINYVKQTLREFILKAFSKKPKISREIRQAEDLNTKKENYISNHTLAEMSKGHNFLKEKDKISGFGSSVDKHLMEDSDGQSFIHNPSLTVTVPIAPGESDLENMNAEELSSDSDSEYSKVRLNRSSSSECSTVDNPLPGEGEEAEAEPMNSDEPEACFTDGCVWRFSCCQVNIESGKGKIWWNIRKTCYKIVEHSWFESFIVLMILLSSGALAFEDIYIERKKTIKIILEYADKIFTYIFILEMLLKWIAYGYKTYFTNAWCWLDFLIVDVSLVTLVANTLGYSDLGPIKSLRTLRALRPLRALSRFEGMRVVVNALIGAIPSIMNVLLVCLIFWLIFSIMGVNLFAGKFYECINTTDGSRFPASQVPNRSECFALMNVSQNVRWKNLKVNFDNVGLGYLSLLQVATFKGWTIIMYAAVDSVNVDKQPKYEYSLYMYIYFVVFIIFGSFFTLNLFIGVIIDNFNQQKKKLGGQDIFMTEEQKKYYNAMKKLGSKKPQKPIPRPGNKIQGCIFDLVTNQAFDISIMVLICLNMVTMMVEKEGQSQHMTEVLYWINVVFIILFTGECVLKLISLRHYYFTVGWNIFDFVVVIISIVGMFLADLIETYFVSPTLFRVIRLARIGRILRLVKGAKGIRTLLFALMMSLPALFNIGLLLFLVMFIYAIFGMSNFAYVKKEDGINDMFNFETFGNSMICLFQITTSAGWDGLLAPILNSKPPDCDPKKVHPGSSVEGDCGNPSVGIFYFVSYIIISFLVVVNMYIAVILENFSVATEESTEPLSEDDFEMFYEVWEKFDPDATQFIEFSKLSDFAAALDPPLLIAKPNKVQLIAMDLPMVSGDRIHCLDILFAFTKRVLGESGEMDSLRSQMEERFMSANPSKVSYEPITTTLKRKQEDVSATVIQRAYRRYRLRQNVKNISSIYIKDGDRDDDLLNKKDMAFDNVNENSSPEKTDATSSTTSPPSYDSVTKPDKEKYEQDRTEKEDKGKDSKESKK
Method: as §1

Chain of Sodium channel protein type 10 subunit alpha (Q9Y5Y9 whole entry): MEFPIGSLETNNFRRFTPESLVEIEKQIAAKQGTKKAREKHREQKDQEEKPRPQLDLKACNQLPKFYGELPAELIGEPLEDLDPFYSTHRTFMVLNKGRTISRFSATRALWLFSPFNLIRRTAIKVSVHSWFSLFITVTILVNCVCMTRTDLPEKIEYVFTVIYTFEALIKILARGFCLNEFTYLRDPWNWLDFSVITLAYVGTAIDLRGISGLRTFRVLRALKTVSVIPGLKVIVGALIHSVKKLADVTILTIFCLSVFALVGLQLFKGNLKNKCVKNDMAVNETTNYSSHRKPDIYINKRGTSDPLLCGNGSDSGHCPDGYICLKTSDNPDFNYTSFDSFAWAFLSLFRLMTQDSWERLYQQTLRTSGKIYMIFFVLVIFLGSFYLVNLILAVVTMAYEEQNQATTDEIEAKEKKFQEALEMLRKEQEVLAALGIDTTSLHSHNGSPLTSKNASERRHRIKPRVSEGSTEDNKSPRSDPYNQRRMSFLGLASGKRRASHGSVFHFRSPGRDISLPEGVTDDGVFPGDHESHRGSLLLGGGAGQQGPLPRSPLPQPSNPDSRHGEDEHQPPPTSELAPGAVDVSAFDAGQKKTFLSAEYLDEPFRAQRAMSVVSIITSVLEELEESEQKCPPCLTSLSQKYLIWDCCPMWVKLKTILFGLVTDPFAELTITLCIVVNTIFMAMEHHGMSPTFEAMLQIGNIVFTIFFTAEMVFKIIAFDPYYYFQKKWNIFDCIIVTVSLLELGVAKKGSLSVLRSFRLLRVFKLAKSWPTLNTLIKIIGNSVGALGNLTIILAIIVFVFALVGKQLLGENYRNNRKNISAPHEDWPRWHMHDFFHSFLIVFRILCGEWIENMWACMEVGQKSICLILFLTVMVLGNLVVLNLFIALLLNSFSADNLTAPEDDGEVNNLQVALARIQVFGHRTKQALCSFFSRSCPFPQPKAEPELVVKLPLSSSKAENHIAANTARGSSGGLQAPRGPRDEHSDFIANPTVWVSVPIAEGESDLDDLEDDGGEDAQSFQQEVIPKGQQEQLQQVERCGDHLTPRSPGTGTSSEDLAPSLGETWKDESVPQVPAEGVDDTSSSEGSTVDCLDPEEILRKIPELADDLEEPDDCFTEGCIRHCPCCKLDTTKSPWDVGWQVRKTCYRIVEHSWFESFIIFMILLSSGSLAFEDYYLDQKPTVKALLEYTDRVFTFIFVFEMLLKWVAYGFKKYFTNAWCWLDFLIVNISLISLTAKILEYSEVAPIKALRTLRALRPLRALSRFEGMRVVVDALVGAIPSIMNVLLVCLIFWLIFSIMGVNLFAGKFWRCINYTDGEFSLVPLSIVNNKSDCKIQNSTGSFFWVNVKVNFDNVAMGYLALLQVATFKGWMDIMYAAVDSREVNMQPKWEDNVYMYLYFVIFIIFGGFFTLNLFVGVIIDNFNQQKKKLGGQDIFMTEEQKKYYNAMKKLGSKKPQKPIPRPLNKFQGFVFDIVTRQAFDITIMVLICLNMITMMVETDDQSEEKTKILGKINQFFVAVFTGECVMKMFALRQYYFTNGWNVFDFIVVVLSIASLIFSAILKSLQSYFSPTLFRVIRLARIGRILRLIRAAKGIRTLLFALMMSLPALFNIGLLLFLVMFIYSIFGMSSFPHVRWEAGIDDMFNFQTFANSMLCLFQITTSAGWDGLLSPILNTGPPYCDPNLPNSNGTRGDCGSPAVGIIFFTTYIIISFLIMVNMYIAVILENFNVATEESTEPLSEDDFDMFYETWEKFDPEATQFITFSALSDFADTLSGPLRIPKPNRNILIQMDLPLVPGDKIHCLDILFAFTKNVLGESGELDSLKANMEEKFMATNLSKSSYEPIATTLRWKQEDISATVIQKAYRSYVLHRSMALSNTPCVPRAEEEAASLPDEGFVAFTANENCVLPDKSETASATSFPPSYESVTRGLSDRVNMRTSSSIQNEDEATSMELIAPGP

| SMILES | IC50 [1] | IC50 [2] |
| --- | --- | --- |
| CCOc1ccccc1/C=N/NC(=O)c1cncc(-c2ccc(OC)cc2)n1 [US20240335442, Compound 43] | 0.188 µM | 3.92 µM |
| CCCOc1ccccc1/C=N/NC(=O)c1cncc(-c2ccc(OC)cc2)n1 [US20240335442, Compound 44] | 0.163 µM | 3.62 µM |
| CCCOc1cc(/C=N/NC(=O)c2cncc(-c3ccc(OC)cc3)n2)cc(OCCC)c1 [US20240335442, Compound 68] | 0.289 µM | 1.83 µM |
| COc1ccc(-c2cncc(C(=O)N/N=C/c3cc(OC(C)C)cc(OC(C)C)c3)n2)cc1 [US20240335442, Compound 69] | 0.517 µM | 1.43 µM |
| COc1ccc(-c2cncc(C(=O)N/N=C/c3cc(F)cc(F)c3)n2)cc1 [US20240335442, Compound 70] | 0.973 µM | 10 µM |
| COc1ccc(-c2cncc(C(=O)N/N=C/c3cc(C)cc(C)c3)n2)cc1 [US20240335442, Compound 75] | 0.0512 µM | 0.464 µM |
| COc1ccc(-c2cncc(C(=O)N/N=C/c3cc(OC)cc(OC)c3OC)n2)cc1 [US20240335442, Compound 80] | 0.352 µM | 1.49 µM |
| COc1ccc(-c2cncc(C(=O)N/N=C/c3cc(OC)c(OC)c(OC)c3)n2)cc1 [US20240335442, Compound 81] | > 1 µM | > 10 µM |
| COc1ccc(Oc2nccnc2C(=O)N/N=C/c2cc(OC)cc(OC)c2)cc1 [US20240335442, Compound 129] | > 1 µM | > 10 µM |
| CC(C)Oc1ccc(-c2cncc(C(=O)N/N=C/C3CCC(F)(F)CC3)n2)cc1 [US20240335442, Compound 176] | 0.456 µM | 0.4 µM |
| COc1ccc(-c2cncc(C(=O)N/N=C/C3=C(C)CCCC3)n2)cc1 [US20240335442, Compound 197] | 0.162 µM | 0.778 µM |
| CCOc1ccc(-c2cncc(C(=O)N/N=C/C3=C(C)CCCC3)n2)cc1 [US20240335442, Compound 198] | 0.024 µM | 0.367 µM |
| CCOc1ccc(-c2cncc(C(=O)N/N=C/C3=C(C)CCCCC3)n2)cc1 [US20240335442, Compound 201] | 0.07 µM | 0.425 µM |
| CCOc1ccc(-c2nc(C(=O)N/N=C/c3cc(OC)cc(OC)c3)cnc2C)cc1 [US20240335442, Compound 207] | 0.472 µM | > 10 µM |
| CCOc1ccc(-c2nc(C(=O)N/N=C/c3cc(OC)cc(OC)c3)cnc2CC)cc1 [US20240335442, Compound 208] | 0.431 µM | 1.89 µM |
| CCOc1ccc(-c2nc(C(=O)N/N=C/c3cc(OC)cc(OC)c3)cnc2OC)cc1 [US20240335442, Compound 211] | > 1 µM | > 10 µM |
| CCOc1ccc(-c2cncc(C(=O)N/N=C/c3cc(OC)cc(C(C)O)c3)n2)cc1 (centres undefined) [US20240335442, Compound 215] | 0.116 µM | 1.91 µM |
